Assay results as given in US11767313B2, “Compounds as nuclear transport modulators and uses thereof” (XWPHARMA LTD., priority 2018, dated 2023).
Like-named read-outs stand apart in the source and are kept apart here.

What was measured:
[1] = Pharmacokinetic profile in plasma; assay type: in vivo; conditions: mouse, iv, I. V., mice
[2] = system: T98G; assay: CellTiter-Glo cell proliferation assay, T98G; assay type: cell-based; conditions: Homo sapiens, T98G
Protocol: (§1) CellTiter-Glo® Luminescent Cell Viability assay (with Promega CellTiter 96® Luminescent CellTiter-Glo® kit) was used to study the proliferation inhibition by test compounds. Compounds were resuspended in DMSO to make a 25 mM stock suspension. Cells of cancer cell lines or normal tissues were seeded in 96-well plates at 1,500 to 5,000 cells/well overnight. Compounds were 2- or 3-fold diluted serially to obtain 10 concentrations. Then, the drugs were added to the cell wells by Bravo (Agilent) and incubated for 72 hours. The cells were lysed by adding CellTiter-Glo® Reagent (per manufacturer's instructions) and subsequently, the luminescence was read using EnVision® (PerkinElmer).
(§2) The percent of growth was calculated as follows. DMSO-treated cells were employed as vehicle control (High control, HC) and culture medium alone was employed as background (Low control, EC). % growth=100×(Lum sample−Lum EC)/(Lum HC−Lum EC). The ICso was calculated by concentration-response curve fitting using Graphpad Prism.
(§3) Hematological cancer cell lines tested included OCI-AML3, MV-4-11, KG-1, Kasumi-1, K562, THP-1; solid cancer cell lines tested included U87MG, U251, T98G, LN229, A172, H460, H2009, A549; normal cell lines tested included HCN2 and 3T3-L1. […] However, they were not toxic to in vitro cultured normal cells.

[3] = system: U251; assay: CellTiter-Glo cell proliferation assay, U251; assay type: cell-based; conditions: Homo sapiens, U-251
Protocol: as §1, §2, §3

[4] = Pharmacokinetic profile summary; assay type: in vivo, mice or rats
Protocol: (§4) Blood was collected from mice (n=3, or 5) to contribute to the total of 10 time points (pre-dose, 5 min, 15 min, 30 min, 1 hour, 2 hours, 4 hours, 8 hours, 12 hours and 24 hours). At the designated time points, animals were anaesthetized under isoflurane, and approximately 110 μL of blood per time point was collected via retro-orbital puncture into pre-cooled K2EDTA tubes. Blood samples were put on wet ice and centrifuged (2000 g, 5 min at 4° C.) to obtain plasma within 30 minutes of sample collection. All samples were stored frozen at approximately −80° C. until analysis. Prior to analysis, samples were mixed with internal standard in acetonitrile, vortexed, centrifuged, and supernatant was injected for analysis. Concentration of compounds in plasma was determined using LC-MS-MS instrumentation (API 4000, Triple Quadrupole LC/MS/MS Mass Spectrometer). AUC values were calculated using Phoenix Win Nonlin 6.3 software package, PO-Noncompartmental model 200 (extravascular input).
(§5) Following collection, brain tissue was rinsed with cold saline, dried on filter paper, weighed and snap-frozen by placing on dry ice. All samples were stored frozen at approximately −80° C. until analysis. At the time of analysis, brain tissue was homogenized (homogenizing solution PBS, pH 7.4), mixed with internal standard in acetonitrile, vortexed, centrifuged, and supernatant was injected for analysis. Concentration of compounds in plasma was determined using LC-MS-MS instrumentation (API 4000, Triple Quadrupole LC/MS/MS Mass Spectrometer). Plasma samples were treated with the identical method (except homogenization step) and the concentration of compound in each matrix was calculated based on generated standard curves.
The pharmacokinetic profile of test compounds in mice or rats was determined from several test compounds was determined using the methods described in Example 22.

[5] = target: XPO1 (Homo sapiens, UniProt O14980); assay: REV-GFP translocation assay in U2OS cells; assay type: cell-based; design: endogenous in cells; host or cells: U2OS cells stably expressing REV-GFP (clones from HD Biosciences); conditions: for IC50: Table 10
Chain of XPO1 (O14980 whole entry): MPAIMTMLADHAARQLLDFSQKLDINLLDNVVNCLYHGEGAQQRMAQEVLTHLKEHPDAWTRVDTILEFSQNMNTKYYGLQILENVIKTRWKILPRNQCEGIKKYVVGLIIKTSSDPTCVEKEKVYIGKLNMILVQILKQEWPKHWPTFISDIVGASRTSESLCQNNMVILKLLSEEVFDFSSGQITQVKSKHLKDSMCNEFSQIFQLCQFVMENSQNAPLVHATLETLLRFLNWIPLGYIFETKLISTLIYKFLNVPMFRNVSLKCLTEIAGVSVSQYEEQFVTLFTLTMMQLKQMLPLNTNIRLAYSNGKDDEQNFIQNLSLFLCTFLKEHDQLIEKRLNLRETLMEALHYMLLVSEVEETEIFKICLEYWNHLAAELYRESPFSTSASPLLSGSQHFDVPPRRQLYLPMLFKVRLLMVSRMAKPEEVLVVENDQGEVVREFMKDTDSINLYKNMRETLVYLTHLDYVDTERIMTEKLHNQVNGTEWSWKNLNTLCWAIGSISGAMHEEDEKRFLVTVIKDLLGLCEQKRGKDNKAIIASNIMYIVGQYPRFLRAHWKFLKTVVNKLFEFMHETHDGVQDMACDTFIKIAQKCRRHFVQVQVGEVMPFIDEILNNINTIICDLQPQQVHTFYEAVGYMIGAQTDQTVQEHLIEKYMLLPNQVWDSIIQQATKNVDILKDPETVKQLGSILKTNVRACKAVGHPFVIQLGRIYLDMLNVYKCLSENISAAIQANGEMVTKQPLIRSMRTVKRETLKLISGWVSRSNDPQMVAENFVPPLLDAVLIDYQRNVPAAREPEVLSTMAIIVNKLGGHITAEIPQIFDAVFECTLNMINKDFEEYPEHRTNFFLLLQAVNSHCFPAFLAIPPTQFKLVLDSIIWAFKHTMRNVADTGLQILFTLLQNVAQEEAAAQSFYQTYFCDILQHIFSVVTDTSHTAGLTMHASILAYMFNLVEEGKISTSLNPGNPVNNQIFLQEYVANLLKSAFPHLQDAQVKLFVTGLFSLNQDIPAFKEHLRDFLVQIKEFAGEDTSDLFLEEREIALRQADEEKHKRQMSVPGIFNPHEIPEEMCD
Protocol: LTD in China, and cells were cultured with growth medium. […] The highest Leptomycin B (LMB) concentration was set to 50 nM and serially diluted as the positive control, while the highest concentrations of other compounds were set to 10 μM. The cells treated with various drugs or DMSO, were incubated at 37° C. and 5% CO2 for 1 h. Then, cells were fixed with 4% formaldehyde for 15 min at room temperature. The cells were washed and stained with 100 μL Hoechst 33342 working solution for 10 min at room temperature in dark, after which the cell fluorescence was imaged with the High-Content Imaging System, ImageXpress® (Molecular Devices) using the 20× objective. The filters were set for Hoechst (350/461 nm) and GFP/FITC (488/509 nm) (wavelength for excitation and emission maxima). The % effect of REV nuclear translocation was calculated with the following formula: % effect=([…]- signals from testing compounds; ILMB-signals of 50 nM LMB group; ICTRL-signals of vehicle control group.

[6] = system: U87MG; assay: CellTiter-Glo cell proliferation assay, U87MG; assay type: cell-based, human; conditions: Homo sapiens, U-87 MG
Protocol: as §1, §2, §3

[7] = system: LN-229; assay: CellTiter-Glo cell proliferation assay, LN-229; assay type: cell-based; conditions: Homo sapiens, LN-229
Protocol: as §1, §2, §3

[8] = system: HCN2; assay: CellTiter-Glo cell proliferation assay, HCN2 (normal brain); assay type: cell-based
Protocol: as §1, §2, §3

[9] = Pharmacokinetic profile in plasma; assay type: in vivo; conditions: P.O., mice
Protocol: as §4

[10] = Ratio of brain to plasma; assay type: in vivo; conditions: rats, 10 mg/kg PO
Protocol: as §5

[11] = 72 hours, Table 1, read-out: Growth inhibition (IC50)

AUC(0-t) [1]: 1620 ng·h/mL
C0 [1]: 558 ng/mL
clearance [1]: 10 mL/min/kg
half-life [1]: 3.82 h
MRT last ([1]; read-out: MRT0-last): 4.76 h
Vd ([1]; read-out: Vdss): 3.2 L/kg
IC50 ([3]; Table 11, read-out: Absolute IC50 (μM) U251): 2.3 µM
IC50 ([3]; U251, 72 hours, Table 1, read-out: Growth inhibition (IC50)): 2.34 µM
Kp ([4]; mouse, brain/plasma, 5 mpk/mice/AUC Ratio, read-out: B/P ratio): 1.58
Cmax ([4]; mouse, po, 5 mg/kg, 5 mpk/mice, first number of Plasma/brain pair, read-out: Cmax/(ng/mL) Plasma): 1040 ng/mL
Cmax ([4]; mouse, po, 5 mg/kg, 5 mpk/mice, second number of Plasma/brain pair, read-out: Cmax/(ng/mL) brain): 1770 ng/mL
AUC ([4]; plasma, po, 10 mg/kg, 10 mpk): 4150 ng·h/mL
half-life ([4]; plasma, mice or rats): 6.9 h
Cmax ([4]; po, 10 mg/kg, plasma, 10 mpk, read-out: Cmax (ng/ml) plasma/10 mpk): 796 ng/mL
EC50 ([5]; REV-EGFP U2OS cells, 1 h, Table 2, read-out: Rev-GFP/EC50): 0.0285 µM
IC50 ([5]; first (or only) value of the cell): 35.2 nM
IC50 ([5]; second value of the cell): 21.8 nM
EC50 ([5]; Table 13, read-out: Rev-GFP assay/μM): 0.035 µM
IC50 ([6]; 72 h, U87MG, 72 hours, Table 1, read-out: Growth inhibition (IC50)): 630 nM
IC50 ([6]; Table 9, first value column, read-out: U87MG IC50): 537 nM
IC50 ([6]; Table 9, second value column, read-out: U87MG IC50): 723 nM
AUG0-inf [9]: 13905 ng·h/mL
Cmax ([9]; mouse, po): 1600 ng/mL
Tmax ([9]; mouse, po): 2 h
half-life ([9]; mouse, po): 4.72 h
MRT inf ([9]; mouse, po, read-out: MRT0-inf): 7.84 h
MRT last ([9]; mouse, po, read-out: MRT0-last): 6.9 h
Kp at 0.25 h ([10]; rat, brain/plasma, 0.25 h): 0.716
Kp at 1 h ([10]; rat, brain/plasma, 1 h): 0.954
Kp at 8 h ([10]; rat, brain/plasma, 8 h): 1.4
brain concentration (second number of pair) ([10]; 0.25 h): 301 ng/g
plasma concentration (first number of pair) ([10]; 0.25 h): 419 ng/g
brain concentration (second number of pair) ([10]; 1 h): 1191 ng/g
plasma concentration (first number of pair) ([10]; 1 h): 1274 ng/g
brain concentration (second number of pair) ([10]; 8 h): 937 ng/g
plasma concentration (first number of pair) ([10]; 8 h): 677 ng/g
Structure (SMILES): O=C(/C=C\n1cnc(-c2cc(C(F)(F)F)cc(S(F)(F)(F)(F)F)c2)n1)NNc1ccccn1 [Compound II, (Z)-3-(3-(3-(Pentafluorosulfanyl)-5-(trifluoromethyl)phenyl)-1H-1,2,4-triazol-1-yl)-N′-(pyridin-2-yl)acrylohydrazide]
IC50 ([2]; Table 11, read-out: Absolute IC50 (μM) T98G): 1.9 µM
IC50 [2, 11]: 1.92 µM
IC50 ([7]; Table 11, read-out: Absolute IC50 (μM) LN-229): 0.8 µM
IC50 [7, 11]: 0.805 µM
IC50 ([8]; 72 h, HCN2 normal cell line, 72 hours, Table 1, read-out: Growth inhibition (IC50)): 44700 nM
IC50 ([8]; Table 9, read-out: HCN2 IC50): 44700 nM
